From publication PMC6016474, “Structural and functional determination of homologs of the Mycobacterium tuberculosis N-acetylglucosamine-6-phosphate deacetylase (NagA)” (The Journal of Biological Chemistry, 2018)

Key:
[1] = molecular target: T1, MMNagA (Mycobacterium marinum, UniProt B2HDT2); conditions: read-out: MST Kd; binder
T1 construct: gene nagA; full-length from gDNA, N-terminal His6 tag (pET28a, NdeI/HindIII), E. coli BL21(DE3) with Mtb GroES chaperone

[2] = molecular target: T2, MSNagA (Mycolicibacterium smegmatis, UniProt A0QU89, D267A); experiment: X-ray co-crystal structure, […] Å; type: binding; conditions: active site of chain A at dimer interface, Zn and Cd modelled, ligand occupancy 0.75
T2 construct: gene nagA; full-length, 385 residues, N-terminal His6 tag; expressed in M. smegmatis mc2 4517 (pYUB1062) for wild-type rows, in E. coli (pET28a) for D267A
T2 sequence (A0QU89 1-385 D267A): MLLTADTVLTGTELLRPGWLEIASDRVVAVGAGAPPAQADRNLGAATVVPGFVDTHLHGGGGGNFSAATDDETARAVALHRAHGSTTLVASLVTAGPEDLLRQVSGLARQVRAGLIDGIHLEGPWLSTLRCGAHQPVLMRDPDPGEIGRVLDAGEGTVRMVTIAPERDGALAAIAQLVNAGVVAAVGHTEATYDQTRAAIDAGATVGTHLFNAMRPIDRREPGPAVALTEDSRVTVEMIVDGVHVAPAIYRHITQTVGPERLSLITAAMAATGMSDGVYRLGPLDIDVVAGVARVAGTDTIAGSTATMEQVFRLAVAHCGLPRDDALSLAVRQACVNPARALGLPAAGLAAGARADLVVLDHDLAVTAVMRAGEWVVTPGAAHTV

T1 sequence (B2HDT2 entry or part of it): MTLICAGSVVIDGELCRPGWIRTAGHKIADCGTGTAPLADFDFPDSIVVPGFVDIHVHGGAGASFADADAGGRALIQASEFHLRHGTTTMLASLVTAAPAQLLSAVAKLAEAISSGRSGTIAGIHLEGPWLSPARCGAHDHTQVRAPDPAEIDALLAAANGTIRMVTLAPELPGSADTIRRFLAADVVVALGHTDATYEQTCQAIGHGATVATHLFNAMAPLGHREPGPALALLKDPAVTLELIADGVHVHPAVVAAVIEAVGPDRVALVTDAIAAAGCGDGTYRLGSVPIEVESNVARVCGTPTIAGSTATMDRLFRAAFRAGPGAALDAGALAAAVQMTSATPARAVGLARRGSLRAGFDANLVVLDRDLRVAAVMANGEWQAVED

Row | SMILES | Kd [1] [mM] | X-ray co-crystal structure, 2.0 Å [2]
1 | CC(=O)N[C@@H]1C(O)O[C@H](COP(=O)(O)O)[C@@H](O)[C@@H]1O (stereo partly drawn) [ManNAc6P] | 3.8 ± 0.3 | 
2 | CC(=O)N[C@H]1C(O)O[C@H](COP(=O)(O)O)[C@@H](O)[C@@H]1O (stereo partly drawn) [GlcNAc6P] | 1.2 ± 0.05 | 6FV4 for the GlcNAc6P-MSNagA co-crystal structure
